Assay results reported in ChEMBL document CHEMBL4257571, “Discovery of 5-(2-chloro-4'-(1H-imidazol-1-yl)-[1,1'-biphenyl]-4-yl)-1H-tetrazole as potent and orally efficacious S-nitrosoglutathione reductase (GSNOR) inhibitors for the potential treatment of COPD” (Bioorg Med Chem Lett, 2018).
One block for each molecule: values may come before it.

Assays:
[1] = biological target: T1, Alcohol dehydrogenase class-3 (Homo sapiens, UniProt P11766); test: Inhibition of human GSNOR assessed as reduction in NADH consumption after 3 mins by spectrophotometric analysis
Target sequence in this assay (P11766 whole entry): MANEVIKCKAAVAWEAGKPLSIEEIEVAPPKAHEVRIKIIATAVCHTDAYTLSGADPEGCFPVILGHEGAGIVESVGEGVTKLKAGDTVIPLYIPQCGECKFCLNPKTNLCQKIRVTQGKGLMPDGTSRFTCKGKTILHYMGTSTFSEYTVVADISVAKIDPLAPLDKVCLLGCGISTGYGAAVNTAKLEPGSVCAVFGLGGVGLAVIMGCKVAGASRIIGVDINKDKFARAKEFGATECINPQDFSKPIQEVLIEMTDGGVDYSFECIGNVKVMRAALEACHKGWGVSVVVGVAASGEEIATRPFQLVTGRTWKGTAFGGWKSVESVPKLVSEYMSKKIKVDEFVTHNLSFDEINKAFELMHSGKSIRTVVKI

[2] = Metabolic stability of rat liver microsomes assessed as parent compound remaining at 0.1 uM after 60 mins in presence of NADPH by LC/MS/MS analysis; assay type: ADME, microsome; details: read-out: Stability
[3] = biological target: CYP2C9 (Homo sapiens, UniProt P11712); test: Inhibition of CYP2C9 in human liver microsomes at 10 uM after 20 mins in presence of NADPH by LC/MS/MS analysis relative to control; assay type: ADME
Sequence of CYP2C9 (P11712 whole entry): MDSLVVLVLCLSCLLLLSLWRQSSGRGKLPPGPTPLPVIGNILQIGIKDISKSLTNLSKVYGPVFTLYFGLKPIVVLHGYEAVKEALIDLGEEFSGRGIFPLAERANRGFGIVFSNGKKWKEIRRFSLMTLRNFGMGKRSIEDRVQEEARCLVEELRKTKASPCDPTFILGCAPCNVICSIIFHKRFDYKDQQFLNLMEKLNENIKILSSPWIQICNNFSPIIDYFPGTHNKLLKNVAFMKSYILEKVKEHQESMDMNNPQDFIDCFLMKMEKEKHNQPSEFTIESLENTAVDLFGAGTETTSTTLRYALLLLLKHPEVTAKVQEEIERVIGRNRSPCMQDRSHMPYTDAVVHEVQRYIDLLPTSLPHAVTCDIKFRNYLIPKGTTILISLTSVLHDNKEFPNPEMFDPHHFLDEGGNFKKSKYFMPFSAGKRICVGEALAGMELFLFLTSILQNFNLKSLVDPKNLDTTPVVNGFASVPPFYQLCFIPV

[4] = Metabolic stability of mouse liver microsomes assessed as parent compound remaining at 0.1 uM after 60 mins in presence of NADPH by LC/MS/MS analysis; assay type: ADME, microsome; details: read-out: Stability
[5] = biological target: CYP2C19 (Homo sapiens, UniProt P33261); test: Inhibition of CYP2C19 in human liver microsomes at 10 uM after 40 mins in presence of NADPH by LC/MS/MS analysis relative to control; assay type: ADME
Sequence of CYP2C19 (P33261 whole entry): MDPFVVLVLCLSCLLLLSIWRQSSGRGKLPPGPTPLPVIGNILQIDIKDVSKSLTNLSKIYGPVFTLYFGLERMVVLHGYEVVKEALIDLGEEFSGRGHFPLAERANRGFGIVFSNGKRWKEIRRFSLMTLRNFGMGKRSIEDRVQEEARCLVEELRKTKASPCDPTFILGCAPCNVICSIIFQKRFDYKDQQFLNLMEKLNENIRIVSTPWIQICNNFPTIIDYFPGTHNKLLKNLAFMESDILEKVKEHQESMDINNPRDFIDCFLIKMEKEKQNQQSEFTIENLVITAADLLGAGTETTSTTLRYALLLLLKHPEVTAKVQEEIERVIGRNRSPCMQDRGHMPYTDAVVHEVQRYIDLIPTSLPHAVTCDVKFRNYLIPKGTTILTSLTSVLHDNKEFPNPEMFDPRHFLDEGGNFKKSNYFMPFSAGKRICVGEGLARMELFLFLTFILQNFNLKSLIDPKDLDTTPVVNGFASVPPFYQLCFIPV

[6] = biological target: CYP3A4 (Homo sapiens, UniProt P08684); test: Inhibition of CYP3A4 in human liver microsomes at 10 uM after 20 mins in presence of NADPH by LC/MS/MS analysis relative to control; assay type: ADME; details: liver microsomes
Sequence of CYP3A4 (P08684 whole entry): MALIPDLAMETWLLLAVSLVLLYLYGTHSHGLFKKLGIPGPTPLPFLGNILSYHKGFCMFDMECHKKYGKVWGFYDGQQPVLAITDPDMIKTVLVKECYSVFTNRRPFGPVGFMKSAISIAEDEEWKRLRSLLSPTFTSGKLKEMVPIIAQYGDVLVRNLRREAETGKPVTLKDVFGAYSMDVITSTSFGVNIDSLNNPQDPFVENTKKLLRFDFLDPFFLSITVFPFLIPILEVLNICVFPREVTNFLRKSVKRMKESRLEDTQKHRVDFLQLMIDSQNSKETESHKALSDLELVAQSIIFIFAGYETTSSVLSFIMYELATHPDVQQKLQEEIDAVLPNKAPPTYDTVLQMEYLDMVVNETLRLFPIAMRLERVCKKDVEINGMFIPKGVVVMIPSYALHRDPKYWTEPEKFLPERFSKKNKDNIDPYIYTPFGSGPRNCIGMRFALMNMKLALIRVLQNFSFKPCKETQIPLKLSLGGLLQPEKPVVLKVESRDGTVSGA

[7] = Metabolic stability of human liver microsomes assessed as parent compound remaining at 0.1 uM after 60 mins in presence of NADPH by LC/MS/MS analysis; assay type: ADME, microsome; details: read-out: Stability
[8] = biological target: CYP2D6 (Homo sapiens, UniProt P10635); test: (§1) Inhibition of CYP2D6 in human liver microsomes at 10 uM after 20 mins in presence of NADPH by LC/MS/MS analysis relative to control; assay type: ADME; details: liver microsomes
Sequence of CYP2D6 (P10635 whole entry): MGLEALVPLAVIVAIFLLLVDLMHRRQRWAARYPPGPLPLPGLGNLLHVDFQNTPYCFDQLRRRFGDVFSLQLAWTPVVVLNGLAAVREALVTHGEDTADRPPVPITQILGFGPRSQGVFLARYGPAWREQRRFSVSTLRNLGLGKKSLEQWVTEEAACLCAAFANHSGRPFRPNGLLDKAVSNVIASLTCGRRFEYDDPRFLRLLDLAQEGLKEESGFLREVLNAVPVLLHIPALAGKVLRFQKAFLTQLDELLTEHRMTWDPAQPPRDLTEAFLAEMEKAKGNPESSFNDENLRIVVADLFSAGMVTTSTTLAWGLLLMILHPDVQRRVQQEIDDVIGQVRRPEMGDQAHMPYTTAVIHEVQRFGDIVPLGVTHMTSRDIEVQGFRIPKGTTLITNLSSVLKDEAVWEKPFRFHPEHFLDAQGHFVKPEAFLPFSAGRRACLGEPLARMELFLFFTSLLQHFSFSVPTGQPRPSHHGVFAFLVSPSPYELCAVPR

[9] = biological target: T2, CYP1A2 (Homo sapiens, UniProt P05177); test: Inhibition of CYP1A2 in human liver microsomes at 10 uM after 20 mins in presence of NADPH by LC/MS/MS analysis relative to control; assay type: ADME; details: liver microsomes
T2 sequence (P05177 whole entry): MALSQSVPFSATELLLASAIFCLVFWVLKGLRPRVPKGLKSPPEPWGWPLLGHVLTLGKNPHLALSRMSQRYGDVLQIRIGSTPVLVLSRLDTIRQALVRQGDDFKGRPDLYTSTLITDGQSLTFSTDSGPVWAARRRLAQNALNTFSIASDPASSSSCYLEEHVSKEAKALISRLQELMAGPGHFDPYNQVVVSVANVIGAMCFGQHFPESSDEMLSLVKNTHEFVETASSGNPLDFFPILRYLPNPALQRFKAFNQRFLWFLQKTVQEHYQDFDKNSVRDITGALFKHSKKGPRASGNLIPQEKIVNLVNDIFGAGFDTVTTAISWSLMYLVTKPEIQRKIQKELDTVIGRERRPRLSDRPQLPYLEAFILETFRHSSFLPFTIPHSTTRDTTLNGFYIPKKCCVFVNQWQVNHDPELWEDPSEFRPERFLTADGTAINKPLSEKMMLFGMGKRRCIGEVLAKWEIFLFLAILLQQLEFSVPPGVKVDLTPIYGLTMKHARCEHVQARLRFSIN

[10] = biological target: Cytochrome P450 2D6 (Homo sapiens, UniProt P10635); test: as §1; assay type: ADME; details: microsomes, 20 min, 10 µM
Sequence of Cytochrome P450 2D6 (P10635 whole entry): as the sequence (P10635 whole entry) above

[11] = biological target: T1, Alcohol dehydrogenase class-3; test: Inhibition of human GSNOR assessed as reduction in NADH consumption at 10 uM after 3 mins by spectrophotometric analysis relative to control
Target sequence in this assay (P11766 2-374 limits assumed): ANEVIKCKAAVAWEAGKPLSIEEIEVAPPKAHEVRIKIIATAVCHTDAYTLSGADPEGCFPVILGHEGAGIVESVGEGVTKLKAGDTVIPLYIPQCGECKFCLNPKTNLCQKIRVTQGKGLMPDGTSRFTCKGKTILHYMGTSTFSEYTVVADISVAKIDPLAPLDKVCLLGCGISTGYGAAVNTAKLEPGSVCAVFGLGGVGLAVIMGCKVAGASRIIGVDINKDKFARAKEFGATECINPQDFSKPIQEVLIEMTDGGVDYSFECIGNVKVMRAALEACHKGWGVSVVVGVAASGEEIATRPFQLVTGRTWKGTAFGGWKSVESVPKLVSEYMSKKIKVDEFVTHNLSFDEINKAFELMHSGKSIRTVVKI

SMILES: O=C(O)c1ccc(-c2ccc(-n3ccnc3)cc2)c(Cl)c1
- IC50 [1]: 30 nM

SMILES: Cc1cc(-n2ccnc2)cnc1-c1ccc(C(=O)O)cc1
- IC50 [1]: 41 nM

SMILES: O=c1nc(-c2ccc(-c3ccc(-n4ccnc4)cc3)cc2)[nH]o1
- IC50 [1]: 152 nM

SMILES: Cc1cc(-n2ccnc2)cnc1-c1ccc(C(=O)O)cc1F
- IC50 [1]: 36 nM

SMILES: O=C(O)c1ccc(-c2ccc(-n3ccnc3)cc2)c(C(F)(F)F)c1
- IC50 [1]: 38 nM

SMILES: c1cn(-c2ccc(-c3ccc(-c4nnn[nH]4)cc3)nc2)cn1
- IC50 [1]: 32 nM

SMILES: Cc1nccn1-c1ccc(-c2ccc(-c3nnn[nH]3)cc2)cc1
- remaining at 1 h, 0.1 µM [2]: 82%
- inhibition at 20 min, 10 µM [3]: 18%
- remaining at 1 h, 0.1 µM [4]: 92%
- inhibition at 40 min, 10 µM [5]: 33%
- IC50 [1]: 97 nM
- inhibition at 20 min, 10 µM [6]: -2%
- remaining at 1 h, 0.1 µM [7]: 63%
- inhibition at 20 min, 10 µM [8]: 37%
- inhibition at 20 min, 10 µM [9]: 10%

SMILES: O=C(O)c1ccc(-c2ncc(-n3ccnc3)cc2Cl)cc1
- IC50 [1]: 89 nM

SMILES: Cc1cc(-c2nnn[nH]2)ccc1-c1ccc(-n2ccnc2)cn1
- IC50 [1]: 44 nM

SMILES: Clc1cc(-c2nnn[nH]2)ccc1-c1ccc(-n2ccnc2)cn1
- IC50 [1]: 308 nM

SMILES: N#Cc1ccc(-c2ccc(-n3ccnc3)cc2)cc1
- inhibition [11]: 10%

SMILES: c1cn(-c2cnc(-c3ccc(-c4nnn[nH]4)cc3)c(C3CCCCC3)c2)cn1
- IC50 [1]: 74 nM

SMILES: CCc1cc(-n2ccnc2)cnc1-c1ccc(-c2nnn[nH]2)cc1
- IC50 [1]: 66 nM

SMILES: c1cc(-c2nn[nH]n2)ccc1-c1ccc(-c2nnn[nH]2)cc1
- IC50 [1]: 3280 nM

Further molecules by falling IC50 [1], results first:

- IC50 [1]: 29 nM
SMILES: Cc1cc(C(=O)O)ccc1-c1ccc(-n2ccnc2)cc1

- IC50 [1]: 26 nM
SMILES: Cc1cc(-c2nnn[nH]2)ccc1-c1ccc(-n2ccnc2)cc1

- remaining at 1 h, 0.1 µM [2]: 99%
- inhibition at 20 min, 10 µM [3]: 48%
- remaining at 1 h, 0.1 µM [4]: 87%
- inhibition at 40 min, 10 µM [5]: 67%
- IC50 [1]: 24 nM
- inhibition at 20 min, 10 µM [6]: 18%
- remaining at 1 h, 0.1 µM [7]: 5%
- inhibition (INH) [10]: Not Active
- inhibition at 20 min, 10 µM [9]: 13%
SMILES: CCc1cc(-n2ccnc2C)ccc1-c1ccc(-c2nnn[nH]2)cc1

- remaining at 1 h, 0.1 µM [2]: 64%
- inhibition at 20 min, 10 µM [3]: 37%
- remaining at 1 h, 0.1 µM [4]: 48%
- inhibition at 40 min, 10 µM [5]: 18%
- IC50 [1]: 20 nM
- inhibition at 20 min, 10 µM [6]: 4%
- remaining at 1 h, 0.1 µM [7]: 100%
- inhibition at 20 min, 10 µM [8]: 14%
- inhibition at 20 min, 10 µM [9]: 22%
SMILES: Cc1cc(-n2ccnc2)ccc1-c1ccc(C(=O)O)cc1

- remaining at 1 h, 0.1 µM [2]: 39%
- inhibition at 20 min, 10 µM [3]: 64%
- remaining at 1 h, 0.1 µM [4]: 19%
- inhibition at 40 min, 10 µM [5]: 42%
- IC50 [1]: 20 nM
- inhibition at 20 min, 10 µM [6]: 1%
- remaining at 1 h, 0.1 µM [7]: 83%
- inhibition at 20 min, 10 µM [8]: 11%
- inhibition at 20 min, 10 µM [9]: 20%
SMILES: Clc1cc(-n2ccnc2)cnc1-c1ccc(-c2nnn[nH]2)cc1

- IC50 [1]: 20 nM
SMILES: Fc1cc(-c2nnn[nH]2)ccc1-c1ccc(-n2ccnc2)cc1

- remaining at 1 h, 0.1 µM [2]: 68%
- inhibition at 20 min, 10 µM [3]: 86%
- remaining at 1 h, 0.1 µM [4]: 44%
- inhibition at 40 min, 10 µM [5]: 84%
- IC50 [1]: 14 nM
- inhibition at 20 min, 10 µM [6]: 26%
- remaining at 1 h, 0.1 µM [7]: 99%
- inhibition at 20 min, 10 µM [8]: 44%
- inhibition at 20 min, 10 µM [9]: 39%
SMILES: Cc1cc(-n2ccnc2)ccc1-c1ccc(-c2nnn[nH]2)cc1

- remaining at 1 h, 0.1 µM [2]: 71%
- inhibition at 20 min, 10 µM [3]: 94%
- remaining at 1 h, 0.1 µM [4]: 58%
- inhibition at 40 min, 10 µM [5]: 86%
- IC50 [1]: 6.1 nM
- inhibition at 20 min, 10 µM [6]: 33%
- remaining at 1 h, 0.1 µM [7]: 100%
- inhibition at 20 min, 10 µM [8]: 37%
- inhibition at 20 min, 10 µM [9]: 56%
SMILES: CCc1cc(-n2ccnc2)ccc1-c1ccc(-c2nnn[nH]2)cc1
